Results published in the supplement of paper PMC10307832.

Key:
Assay in all cases: relative viability (nuclei count vs DMSO), 5 days (fraction); higher = more cells survive
NCI-H2126 = test system: NCI-H2126
In short: (§1)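 Lung cancer cell lines in 1536-well plates were dosed by pin tool the day after seeding, either with one drug alone or with a fixed anchor-drug dose plus five library-drug doses (not always all listed) in √10 steps. After 5 days, cells were fixed and their nuclei stained in one step (final 0.05% Triton X-100, 1% formaldehyde, 1 ug/ml Hoechst), then counted on 4× images. Relative viability is the nuclei count in treated wells divided by that in vehicle wells. Values are medians of duplicate plates.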

LC-2-ad = test system: LC-2-ad
In short: as §1

EPLC-272H = test system: EPLC-272H
In short: as §1

ChaGo-K-1 = test system: ChaGo-K-1
In short: as §1

PC-14 = test system: PC-14
In short: as §1

201T = test system: 201T
In short: as §1

NCI-H661 = test system: NCI-H661
In short: as §1

NCI-H1666 = test system: NCI-H1666
In short: as §1

RERF-LC-KJ = test system: RERF-LC-KJ
In short: as §1

NCI-H520 = test system: NCI-H520
In short: as §1

NCI-H650 = test system: NCI-H650
In short: as §1

HCC-78 = test system: HCC-78
In short: as §1

`C=C1C(=O)O[C@@H](CCCCCCCC)[C@@H]1C(=O)O` [C-75] + CS(=O)(=O)N1CCN(Cc2cc3nc(-c4cccc5[nH]ncc45)nc(N4CCOCC4)c3s2)CC1 [Pictilisib] (partner 1 µM) gave a relative viability (NCI-H2126; first compound 0.08 µM) of 0.465, a relative viability (NCI-H2126; first compound 0.253 µM) of 0.597 and a relative viability (NCI-H2126; first compound 0.8 µM) of 0.471. It also gave a relative viability (NCI-H2126; first compound 2.53 µM) of 0.506, a relative viability (NCI-H2126; first compound 8 µM) of 0.469 and a relative viability (LC-2-ad; first compound 0.08 µM) of 0.556. The relative viability (LC-2-ad; first compound 0.253 µM) was 0.528, the relative viability (LC-2-ad; first compound 0.8 µM) was 0.457 and the relative viability (LC-2-ad; first compound 8 µM) was 0.442. It also gave a relative viability (EPLC-272H; first compound 0.08 µM) of 0.336, a relative viability (EPLC-272H; first compound 0.253 µM) of 0.308 and a relative viability (EPLC-272H; first compound 0.8 µM) of 0.298. The relative viability (EPLC-272H; first compound 2.53 µM) was 0.265, the relative viability (EPLC-272H; first compound 8 µM) was 0.232 and the relative viability (ChaGo-K-1; first compound 0.08 µM) was 0.431. For the same compound, the relative viability (ChaGo-K-1; first compound 0.253 µM) was 0.749, the relative viability (ChaGo-K-1; first compound 0.8 µM) was 0.594 and the relative viability (ChaGo-K-1; first compound 2.53 µM) was 0.507. It also gave a relative viability (ChaGo-K-1; first compound 8 µM) of 0.771, a relative viability (PC-14; first compound 0.08 µM) of 0.748 and a relative viability (PC-14; first compound 0.253 µM) of 0.997. For the same compound, the relative viability (PC-14; first compound 0.8 µM) was 0.668, the relative viability (PC-14; first compound 2.53 µM) was 0.753 and the relative viability (PC-14; first compound 8 µM) was 0.695. The relative viability (201T; first compound 0.08 µM) was 0.697, the relative viability (201T; first compound 0.253 µM) was 0.782 and the relative viability (201T; first compound 0.8 µM) was 0.628. For the same compound, the relative viability (201T; first compound 2.53 µM) was 0.673, the relative viability (201T; first compound 8 µM) was 0.719 and the relative viability (NCI-H661; first compound 0.08 µM) was 0.398. The relative viability (NCI-H661; first compound 0.253 µM) was 0.493, the relative viability (NCI-H661; first compound 0.8 µM) was 0.355 and the relative viability (NCI-H661; first compound 2.53 µM) was 0.315. The relative viability (NCI-H661; first compound 8 µM) was 0.382, the relative viability (NCI-H1666; first compound 0.08 µM) was 0.49 and the relative viability (NCI-H1666; first compound 0.253 µM) was 0.555. The relative viability (NCI-H1666; first compound 0.8 µM) was 0.295, the relative viability (NCI-H1666; first compound 2.53 µM) was 0.41 and the relative viability (NCI-H1666; first compound 8 µM) was 0.346. The relative viability (RERF-LC-KJ; first compound 0.08 µM) was 0.564, the relative viability (RERF-LC-KJ; first compound 0.253 µM) was 0.528 and the relative viability (RERF-LC-KJ; first compound 0.8 µM) was 0.625. For the same compound, the relative viability (RERF-LC-KJ; first compound 2.53 µM) was 0.537, the relative viability (RERF-LC-KJ; first compound 8 µM) was 0.533 and the relative viability (NCI-H520; first compound 0.08 µM) was 0.24. The relative viability (NCI-H520; first compound 0.253 µM) was 0.357, the relative viability (NCI-H520; first compound 0.8 µM) was 0.309 and the relative viability (NCI-H520; first compound 2.53 µM) was 0.224. It also gave a relative viability (NCI-H520; first compound 8 µM) of 0.297, a relative viability (NCI-H650; first compound 0.08 µM) of 0.864 and a relative viability (NCI-H650; first compound 0.253 µM) of 0.825. For the same compound, the relative viability (NCI-H650; first compound 0.8 µM) was 0.801, the relative viability (NCI-H650; first compound 2.53 µM) was 0.815 and the relative viability (NCI-H650; first compound 8 µM) was 0.883. It also gave a relative viability (HCC-78; first compound 0.08 µM) of 0.216 and a relative viability (HCC-78; first compound 0.253 µM) of 0.217.
